pEC50: −log10 of the molar value.
Tests used:
in vitro [1] = details: human, liver microsomes
Description: Half life in human liver microsomes at 0.5 uM after 1 hr in presence of NADPH by LC-MS/MS analysis

in vitro [2] = details: rat, liver microsomes
Description: Half life in rat liver microsomes at 0.5 uM after 1 hr in presence of NADPH by LC-MS/MS analysis

[3] = tested on: Human immunodeficiency virus 1; test: microbe, parasite or virus in culture; details: Human immunodeficiency virus 1, MT2
Description: Antiviral activity against wild type HIV1 infected in human MT2 cells after 4 to 5 days by dual luciferase reporter gene assay

in vitro [4] = details: human, MT2 cells
Description: Cytotoxicity against human MT2 cells assessed as reduction in cell viability

[5] = tested on: Human immunodeficiency virus 1; test: microbe, parasite or virus in culture; details: Human immunodeficiency virus 1, MT2; remark: listed apart in the source
in vivo [6] = details: Sprague-Dawley, rat, po, 5 mg/kg
[7] = tested on: Human immunodeficiency virus 1; test: microbe, parasite or virus in culture; details: Human immunodeficiency virus 1, MT2; remark: listed apart in the source
Description: Antiviral activity against HIV1 expressing gag delta V370 mutant infected in human MT2 cells after 4 to 5 days by dual luciferase reporter gene assay

[8] = tested on: Human immunodeficiency virus 1; test: microbe, parasite or virus in culture; details: Human immunodeficiency virus 1, MT2; remark: listed apart in the source
Description: Antiviral activity against wild type HIV1 infected in human MT2 cells after 4 to 5 days in presence of 10% FBS and 40% human serum albumin by dual luciferase reporter gene assay

in vivo [9] = details: Sprague-Dawley, rat, po, 5 mg/kg; remark: listed apart in the source
physchem = details: aqueous
Description: Aqueous solubility of the compound

| Compound | half-life at 1 h, 0.5 µM (in vitro [1]) | half-life at 1 h, 0.5 µM (in vitro [2]) | pEC50 [3] | CC50 (in vitro [4]) | pEC50 [5] | AUC(0-t) at 6 h (in vivo [6]) | pEC50 [7] | pEC50 [8] | AUC(0-t) at 24 h (in vivo [9]) | solubility (physchem) |
| --- | --- | --- | --- | --- | --- | --- | --- | --- | --- | --- |
| C=C(C)[C@@H]1CC[C@]2(NC(=O)CN3CCS(=O)(=O)CC3)CC[C@]3(C)[C@H](CC[C@@H]4[C@@]5(C)CC=C(c6ccc(C(=O)O)cc6)C(C)(C)[C@@H]5CC[C@]43C)[C@@H]12 | > 2 h | > 2 h | 8.68 | 9900 nM | 8.46 | 8.74 µM·h | 7.72 |  |  |  |
| C=C(C)[C@@H]1CC[C@]2(NCCN3CCC4(C3)CN(S(C)(=O)=O)C4)CC[C@]3(C)[C@H](CC[C@@H]4[C@@]5(C)CC=C(c6ccc(C(=O)O)cc6)C(C)(C)[C@@H]5CC[C@]43C)[C@@H]12 | > 2 h | > 2 h | 8.77 | 11000 nM |  |  | 7.94 | 7.61 |  |  |
| C=C(C)[C@@H]1CC[C@]2(NCCN3CCN(S(=O)(=O)CC)CC3)CC[C@]3(C)[C@H](CC[C@@H]4[C@@]5(C)CC=C(c6ccc(C(=O)O)cc6)C(C)(C)[C@@H]5CC[C@]43C)[C@@H]12 | > 2 h | > 2 h | 8.43 | 13400 nM | 7.99 |  | 7.71 |  |  |  |
| C=C(C)[C@@H]1CC[C@]2(C(=O)NCCCN3CCS(=O)(=O)CC3)CC[C@]3(C)[C@H](CC[C@@H]4[C@@]5(C)CC=C(c6ccc(C(=O)O)cc6)C(C)(C)[C@@H]5CC[C@]43C)[C@@H]12 | > 2 h | > 2 h | 8.68 | 10600 nM | 8.85 | 1.28 µM·h | 7.37 |  |  |  |
| C=C(C)[C@@H]1CC[C@]2(NCCC3CCS(=O)(=O)CC3)CC[C@]3(C)[C@H](CC[C@@H]4[C@@]5(C)CC=C(c6ccc(C(=O)O)cc6)C(C)(C)[C@@H]5CC[C@]43C)[C@@H]12 | > 2 h | > 2 h | 8.43 | 4550 nM |  |  |  | 7.43 |  |  |
| C=C(C)[C@@H]1CC[C@]2(C(=O)NCCC(=O)O)CC[C@]3(C)[C@H](CC[C@@H]4[C@@]5(C)CC=C(c6ccc(C(=O)O)cc6)C(C)(C)[C@@H]5CC[C@]43C)[C@@H]12 | > 2 h | > 2 h |  |  |  |  |  |  | 79.3 µM·h |  |
| C=C(C)[C@@H]1CC[C@]2(NCCN3C[C@@H]4C[C@H]3CS4(=O)=O)CC[C@]3(C)[C@H](CC[C@@H]4[C@@]5(C)CC=C(c6ccc(C(=O)O)cc6)C(C)(C)[C@@H]5CC[C@]43C)[C@@H]12 | > 2 h | > 2 h | 8.72 | 7340 nM | 8.55 |  | 8.11 | 7.95 | 27 µM·h | < 1 µg/mL |
| C=C(C)[C@@H]1CC[C@]2(NCCN3CC4(C3)CN(S(C)(=O)=O)C4)CC[C@]3(C)[C@H](CC[C@@H]4[C@@]5(C)CC=C(c6ccc(C(=O)O)cc6)C(C)(C)[C@@H]5CC[C@]43C)[C@@H]12 | > 2 h | > 2 h | 8.80 | 12000 nM |  |  | 7.88 | 8.13 |  |  |
| C=C(C)[C@@H]1CC[C@]2(NCCN3CCC(S(C)(=O)=O)CC3)CC[C@]3(C)[C@H](CC[C@@H]4[C@@]5(C)CC=C(c6ccc(C(=O)O)cc6)C(C)(C)[C@@H]5CC[C@]43C)[C@@H]12 | > 2 h | > 2 h | 8.74 | 13700 nM | 8.57 |  | 7.92 | 8.21 |  |  |
| C=C(C)[C@@H]1CC[C@]2(NCCN3CCS(=N)(=O)CC3)CC[C@]3(C)[C@H](CC[C@@H]4[C@@]5(C)CC=C(c6ccc(C(=O)O)cc6)C(C)(C)[C@@H]5CC[C@]43C)[C@@H]12 | > 2 h | > 2 h | 8.96 | 14000 nM | 8.82 |  | 8.12 |  | 20.7 µM·h | < 1 µg/mL |
| C=C(C)[C@@H]1CC[C@]2(NCCCN3CCS(=O)(=O)CC3)CC[C@]3(C)[C@H](CC[C@@H]4[C@@]5(C)CC=C(c6ccc(C(=O)O)cc6)C(C)(C)[C@@H]5CC[C@]43C)[C@@H]12 | > 2 h | > 2 h | 8.46 | 15800 nM | 8.12 | 9.36 µM·h | 7.43 | 7.63 | 9.61 µM·h |  |
| C=C(C)[C@@H]1CC[C@]2(NCCN3C[C@@H]4C[C@H]3CN4S(C)(=O)=O)CC[C@]3(C)[C@H](CC[C@@H]4[C@@]5(C)CC=C(c6ccc(C(=O)O)cc6)C(C)(C)[C@@H]5CC[C@]43C)[C@@H]12 | > 2 h | > 2 h | 8.57 | 9300 nM | 8.54 |  | 8.03 |  | 7.08 µM·h |  |
| C=C(C)[C@@H]1CC[C@]2(NC(=O)OCCN3CCS(=O)(=O)CC3)CC[C@]3(C)[C@H](CC[C@@H]4[C@@]5(C)CC=C(c6ccc(C(=O)O)cc6)C(C)(C)[C@@H]5CC[C@]43C)[C@@H]12 | > 2 h | > 2 h | 8.34 | 9900 nM | 7.97 |  | 7.03 |  | 4.97 µM·h |  |
| C=C(C)[C@@H]1CC[C@]2(NCCN3CCN(S(=O)(=O)C(C)C)CC3)CC[C@]3(C)[C@H](CC[C@@H]4[C@@]5(C)CC=C(c6ccc(C(=O)O)cc6)C(C)(C)[C@@H]5CC[C@]43C)[C@@H]12 | > 2 h | > 2 h | 8.28 | 11900 nM | 8.00 |  | 7.19 |  |  |  |
| C=C(C)[C@@H]1CC[C@]2(NC(=O)CCN3CCS(=O)(=O)CC3)CC[C@]3(C)[C@H](CC[C@@H]4[C@@]5(C)CC=C(c6ccc(C(=O)O)cc6)C(C)(C)[C@@H]5CC[C@]43C)[C@@H]12 | > 2 h | > 2 h | 8.17 | 16300 nM | 7.95 |  | 6.99 |  |  |  |
| C=C(C)[C@@H]1CC[C@]2(NCCN3CCCCS3(=O)=O)CC[C@]3(C)[C@H](CC[C@@H]4[C@@]5(C)CC=C(c6ccc(C(=O)O)cc6)C(C)(C)[C@@H]5CC[C@]43C)[C@@H]12 | > 2 h | > 2 h | 8.40 | 9530 nM | 8.60 |  | 7.43 |  | 4.24 µM·h |  |
| C=C(C)[C@@H]1CC[C@]2(NC(=O)C(C)N3CCS(=O)(=O)CC3)CC[C@]3(C)[C@H](CC[C@@H]4[C@@]5(C)CC=C(c6ccc(C(=O)O)cc6)C(C)(C)[C@@H]5CC[C@]43C)[C@@H]12 (stereo not given in full) | > 2 h | > 2 h | 8.74 | > 10000 nM | 8.30 |  | 6.91 |  |  |  |
| C=C(C)[C@@H]1CC[C@]2(NC(=O)NCCN3CCS(=O)(=O)CC3)CC[C@]3(C)[C@H](CC[C@@H]4[C@@]5(C)CC=C(c6ccc(C(=O)O)cc6)C(C)(C)[C@@H]5CC[C@]43C)[C@@H]12 | > 2 h | > 2 h | 8.23 | 17600 nM | 8.31 |  | 7.20 |  |  |  |
| C=C(C)[C@@H]1CC[C@]2(NCCN3CC4C(C3)C4NS(C)(=O)=O)CC[C@]3(C)[C@H](CC[C@@H]4[C@@]5(C)CC=C(c6ccc(C(=O)O)cc6)C(C)(C)[C@@H]5CC[C@]43C)[C@@H]12 (stereo not given in full) | > 2 h | > 2 h | 8.55 | 15200 nM |  |  | 7.74 | 7.67 |  |  |
| C=C(C)[C@@H]1CC[C@]2(C(=O)NCCN3CCS(=O)(=O)CC3)CC[C@]3(C)[C@H](CC[C@@H]4[C@@]5(C)CC=C(c6ccc(C(=O)O)cc6)C(C)(C)[C@@H]5CC[C@]43C)[C@@H]12 | > 2 h | > 2 h | 8.62 | 7900 nM | 8.26 |  | 7.22 |  | 2.47 µM·h |  |
| C=C(C)[C@@H]1CC[C@]2(NC(=O)C(C(C)C)N3CCS(=O)(=O)CC3)CC[C@]3(C)[C@H](CC[C@@H]4[C@@]5(C)CC=C(c6ccc(C(=O)O)cc6)C(C)(C)[C@@H]5CC[C@]43C)[C@@H]12 (stereo not given in full) | > 2 h | > 2 h | 8.41 | 23500 nM | 8.15 |  | 6.14 |  |  |  |
| C=C(C)[C@@H]1CC[C@]2(NCCNC3CCN(S(C)(=O)=O)C3)CC[C@]3(C)[C@H](CC[C@@H]4[C@@]5(C)CC=C(c6ccc(C(=O)O)cc6)C(C)(C)[C@@H]5CC[C@]43C)[C@@H]12 (stereo not given in full) | > 2 h | > 2 h | 8.72 | 10700 nM |  |  |  | 7.86 |  |  |
| C=C(C)[C@@H]1CC[C@]2(NCCO)CC[C@]3(C)[C@H](CC[C@@H]4[C@@]5(C)CC=C(c6ccc(C(=O)O)cc6)C(C)(C)[C@@H]5CC[C@]43C)[C@@H]12 | > 2 h | > 2 h |  | 8480 nM | 8.00 | 4.98 µM·h | 7.18 |  |  |  |
| C=C(C)[C@@H]1CC[C@]2(NCCNC3CCS(=O)(=O)C3)CC[C@]3(C)[C@H](CC[C@@H]4[C@@]5(C)CC=C(c6ccc(C(=O)O)cc6)C(C)(C)[C@@H]5CC[C@]43C)[C@@H]12 (stereo not given in full) | > 2 h | > 2 h | 8.66 | 11100 nM | 8.43 |  | 7.94 | 7.80 |  |  |

— ChEMBL document CHEMBL4152347 (J Med Chem, 2018)
